# Assay results as given in patent publication US4145444A, “Anti-inflammatory agent of benzoyl derivative” (priority 1977, dated 1979).
# Assays:
# hind paws of male rats = experiment: Anti-inflammatory effect: acute carragheenin edema method; format: in vivo; details: Rattus norvegicus; 100 mg/kg oral, carragheenin edema, male rats (Table 2); read-out: Anti-inf.: edema inhibition rate
# Protocol: The edema was induced by subcutaneous injection of 1% carragheenin suspension in saline to the hind paws of male rats weighting 150 to 180 g. Each sample was orally given at the dosage of 100 mg/kg just before the inoculation of carragheenin.
# platelet = experiment: Blood platelet aggregation inhibiting effect (collagen-induced); format: cell-based, rabbits; details: Oryctolagus cuniculus, Platelet; 10^-4 mole, collagen inducer, rabbit PRP; read-out: Blood platelet agg. inh.: percentage inhibition of platelet aggregation
# From the text: Male rabbits (Japan original white strain 3.3 to 3.6 kg) were anesthetized with Thiopental sodium and blood was sampled from the carotid artery.
# thrombus = experiment: Inhibiting effect on thrombosis (by-pass between left juglar vein and right carotid artery, silk thread); format: in vivo, SD type male rates; details: Rattus norvegicus; 100 mg/kg oral, 5 hours before first blood circulation, rats; read-out: Thrombosis inh.: thrombosis inhibition rate
# Protocol: The inhibiting effects of the samples of the invention on thrombosis were tested by the following test method.
# A 0.5 ml of 50 μ/ml of the heparin physiological saline was added through the polyethylene tube before the first blood circulation. After the blood circulation for 15 minutes, the circulation was stopped in the middle of the tubing at artery side with a pinch cock.
# Then, 0.2 ml of the heparin physiological saline was added to remove the blood coagulates on the tubing wall and another new polyethylene tubing filled with the heparin solution and containing a piece of new silk thread was attached between the venous and artery tubing ends.
# The blood circulation was reestablished by opening the pinch cock. After 15 minutes, the wet weight of thrombus on the silk thread was similarly measured.
# In the same manner, the third circulation was performed and wet weight of thrombus measured.
# The amount of thrombus was given by the equation A. [formula] Each sample was suspended in an aqueous solution of sodium carboxymethyl cellulose and the oral dose of the suspension (100 mg/kg) was performed at 5 hours before the first blood circulation.
# The amount of thrombus after the oral dose of the sample was calculated in the same manner as that of control circulations.
# The thrombosis inhibition rate was given by the equation B. [formula]
# male mice = experiment: Analgesic effect: painful stretchings following intraperitoneal 0.7% acetic acid; details: Mus musculus, po, read-out: Analgesic: percentage diminition of times of painful stretching
# Protocol: Each sample was orally administered in the dosage of 100 mg/kg before injection of acetic acid.
Structure (SMILES),inhibition in vivo at 100 mg/kg (hind paws of male rats),inhibition at 100 µM (platelet),inhibition in vivo at 100 mg/kg (thrombus),inhibition in vivo at 100 mg/kg (male mice)
CCCCCCCCc1ccc(C(=O)c2ccc(CCCC)cc2)cc1 [compound 101],23.1%,27.9%,31.4%,18.3%
Cc1ccc(C(=O)c2ccccc2)c(C)c1C [compound 31],35.4%,18.2%,23.5%,9.5%
CCCCc1ccc(C(=O)c2ccc(F)cc2C)cc1 [compound 46],43.4%,16.5%,34.5%,13.4%
CCCCCc1ccc(C(=O)c2cccc(C)c2)cc1 [compound 89],27.6%,22.6%,13.2%,4.3%
Cc1ccccc1C(=O)c1c(C)c(C)cc(C)c1C [compound 91],21.4%,14.7%,31%,15.2%
C=Cc1ccc(C(=O)c2ccccc2)cc1 [compound 82],23.8%,20.5%,30.1%,13.5%
Cc1ccc(C(=O)c2ccccc2)cc1C [compound 72],29.9%,28.7%,30.2%,23.4%
CCCCOc1ccc(C(=O)c2ccccc2)cc1 [compound 42],35.8%,4.4%,10.7%,26.8%
CCCCOc1ccc(C(=O)c2c(C)cc(C)cc2C)cc1 [compound 94],26.6%,27.9%,37.4%,15.8%
CCCc1ccc(C(=O)c2ccccc2)cc1 [compound 20],42.7%,36.6%,4.1%,17.3%
CCCc1ccc(C(=O)c2ccc(C)cc2)cc1 [compound 34],43.1%,16.4%,24.5%,12.1%
CCCCCOc1ccc(C(=O)Cc2ccccc2)cc1 [compound 59],20.7%,25.6%,14.1%,22.8%
Cc1ccc(C)c(C(=O)c2ccccc2)c1 [compound 38],37.5%,20.9%,8.3%,18%
CCCCCc1ccc(C(=O)c2ccccc2F)cc1 [compound 9],74.6%,14.6%,25.3%,15.3%
CCCCCCc1ccc(C(=O)c2c(C)cc(C)cc2C)cc1 [compound 103],29.7%,29.5%,35.8%,14.2%
CCCCc1ccc(C(=O)c2ccc(CCCC)cc2)cc1 [compound 43],34%,3.5%,86%,0%
CCCCc1ccc(C(=O)C(=O)c2ccccc2)cc1 [compound 29],44.7%,11.1%,15.3%,2.7%
CCCCc1ccc(CCCC)c(C(=O)c2ccc(C)cc2)c1 [compound 17],36.3%,17.3%,19.5%,10.3%
CCCCCCCCCc1ccc(C(=O)c2ccccc2)cc1 [compound 70],23.2%,17.2%,10%,7%
